# Test results published in PubChem BioAssay (NCI).
#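 These data come from cells grown in 96-well plates and exposed to compound for 48 hours at five concentrations. GI50 = concentration required for 50% inhibition of growth. TGI marks complete inhibition of growth.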
# What was measured:
# Assay in all cases: NCI tumour cell line growth inhibition, 48 h
# [1] = system: HOP-92 NSCLC
# [2] = system: SK-OV-3 ovarian
# [3] = system: OVCAR-4 ovarian
# [4] = system: SN12C renal
# [5] = system: NCI-H522 lung
# [6] = system: SF-268 CNS
# [7] = system: EKVX NSCLC
# [8] = system: SNB-19 CNS
# [9] = system: UACC-257 melanoma
# [10] = system: HT29 colon
# [11] = system: COLO 205 colon
# [12] = system: RXF 393 renal
# [13] = system: UO-31 renal
# [14] = system: M14 melanoma
# [15] = system: TK-10 renal
# [16] = system: HCT-15 colon
# [17] = system: SW-620 colon
# [18] = system: HS 578T breast
# [19] = system: OVCAR-5 ovarian
# [20] = system: LOX IMVI melanoma
# [21] = system: SK-MEL-5 melanoma
# [22] = system: ACHN renal
# [23] = system: NCI-H23 lung
# [24] = system: UACC-62 melanoma
# [25] = system: K-562 leukemia
# [26] = system: SF-539 CNS
# [27] = system: CAKI-1 renal
# [28] = system: SK-MEL-28 melanoma
# [29] = system: NCI/ADR-RES ovarian
# [30] = system: HL-60(TB) leukemia
# [31] = system: SNB-75 CNS
# [32] = system: SK-MEL-2 melanoma
# [33] = system: HCT-116 colon
# [34] = system: DU-145 prostate
# [35] = system: MDA-MB-231 breast
# [36] = system: MDA-MB-435
# [37] = system: IGROV1 ovarian
# [38] = system: KM12 colon
# [39] = system: T-47D breast
# [40] = system: SR leukemia
# [41] = system: A498 renal
# [42] = system: CCRF-CEM leukemia
# [43] = system: RPMI-8226 leukemia
# [44] = system: HCC-2998 colon
# [45] = system: MDA-MB-468 breast
# [46] = system: MOLT-4 leukemia
# [47] = system: MALME-3M melanoma
# [48] = system: PC-3 prostate
# [49] = system: U251 CNS
# [50] = system: A549 NSCLC
# [51] = system: BT-549 breast
# [52] = system: NCI-H460 lung
# [53] = system: OVCAR-3 ovarian
# [54] = system: 786-0 renal
# [55] = system: NCI-H226 lung
# [56] = system: SF-295 CNS
# [57] = system: MCF7 breast
# [58] = system: OVCAR-8 ovarian
# [59] = system: HOP-62 NSCLC
compound,measurement,setting,value
Cc1ccc2c(c1)nc(-c1ccccc1)n2CC(=O)N=Nc1c(O)[nH]c2ccc(Cl)cc12,GI50,[1],1570 nM
same,TGI,[1],3.76 µM
same,GI50,[2],2.11 µM
same,TGI,[2],4.44 µM
same,GI50,[3],2370 nM
same,TGI,[3],5.93 µM
same,GI50,[4],1.78 µM
same,TGI,[4],3.54 µM
same,GI50,[5],1670 nM
same,TGI,[5],3.38 µM
same,GI50,[6],2.36 µM
same,TGI,[6],6.49 µM
same,GI50,[7],1.61 µM
same,TGI,[7],3.71 µM
same,GI50,[8],2.13 µM
same,TGI,[8],5.55 µM
same,GI50,[9],1.86 µM
same,TGI,[9],3.77 µM
same,GI50,[10],1840 nM
same,TGI,[10],3.76 µM
same,GI50,[11],2670 nM
same,TGI,[11],7 µM
same,GI50,[12],1500 nM
same,TGI,[12],3.04 µM
same,GI50,[13],1380 nM
same,TGI,[13],3.36 µM
same,GI50,[14],2170 nM
same,TGI,[14],4.77 µM
same,GI50,[15],2790 nM
same,TGI,[15],7.18 µM
same,GI50,[16],1810 nM
same,TGI,[16],3.57 µM
same,GI50,[17],2070 nM
same,TGI,[17],4.43 µM
same,GI50,[18],2.09 µM
same,TGI,[18],6.14 µM
same,GI50,[19],2.91 µM
same,TGI,[19],9.28 µM
same,GI50,[20],1.57 µM
same,TGI,[20],2.98 µM
same,GI50,[21],2010 nM
same,TGI,[21],4.92 µM
same,GI50,[22],1610 nM
same,TGI,[22],3.31 µM
same,GI50,[23],1700 nM
same,TGI,[23],3.35 µM
same,GI50,[24],1750 nM
same,TGI,[24],3.45 µM
same,GI50,[25],3.13 µM
same,TGI,[25],> 100 µM
same,GI50,[26],1.69 µM
same,TGI,[26],3.29 µM
same,GI50,[27],2.18 µM
same,TGI,[27],6.64 µM
same,GI50,[28],1.88 µM
same,TGI,[28],3.52 µM
same,GI50,[29],1840 nM
same,TGI,[29],3.55 µM
same,GI50,[30],4.62 µM
same,TGI,[30],29.8 µM
same,GI50,[31],1520 nM
same,TGI,[31],3.39 µM
same,GI50,[32],10.5 µM
same,TGI,[32],25 µM
same,GI50,[33],2480 nM
same,TGI,[33],6.21 µM
same,GI50,[34],2.53 µM
same,TGI,[34],5.8 µM
same,GI50,[35],1830 nM
same,TGI,[35],3.52 µM
same,GI50,[36],2.38 µM
same,TGI,[36],5.44 µM
same,GI50,[37],1.69 µM
same,TGI,[37],3.38 µM
same,GI50,[38],2.95 µM
same,TGI,[38],9.49 µM
same,GI50,[39],1940 nM
same,TGI,[39],5.14 µM
same,GI50,[40],3.41 µM
same,TGI,[40],> 100 µM
same,GI50,[41],1.91 µM
same,TGI,[41],3.93 µM
same,GI50,[42],2.41 µM
same,TGI,[42],52.9 µM
same,GI50,[43],2.78 µM
same,TGI,[43],10.4 µM
same,GI50,[44],1790 nM
same,TGI,[44],3.47 µM
same,GI50,[45],1340 nM
same,TGI,[45],2.77 µM
same,GI50,[46],2390 nM
same,TGI,[46],11.5 µM
same,GI50,[47],1870 nM
same,TGI,[47],4.07 µM
O=C(CSc1nc2sc3c(c2c(=O)n1-c1ccc(Cl)cc1)CCCC3)N/N=C/C=C/c1ccccc1,GI50,[1],3910 nM
same,TGI,[1],25.9 µM
same,GI50,[2],14.2 µM
same,TGI,[2],38.4 µM
same,GI50,[3],3420 nM
same,TGI,[3],15.9 µM
same,GI50,[4],18 µM
same,TGI,[4],> 100 µM
same,GI50,[5],3170 nM
same,TGI,[5],12.6 µM
same,GI50,[6],24.9 µM
same,TGI,[6],> 100 µM
same,GI50,[7],8.81 µM
same,TGI,[7],> 100 µM
same,GI50,[8],18.2 µM
same,TGI,[8],> 100 µM
same,GI50,[9],11.8 µM
same,TGI,[9],87.8 µM
same,GI50,[48],3.04 µM
same,TGI,[48],17.9 µM
same,GI50,[49],3.3 µM
same,TGI,[49],11.7 µM
same,GI50,[50],3.58 µM
same,TGI,[50],15.5 µM
same,GI50,[10],2610 nM
same,TGI,[10],6.48 µM
same,GI50,[11],1710 nM
same,TGI,[11],3.4 µM
same,GI50,[12],1930 nM
same,TGI,[12],4.75 µM
same,GI50,[14],3440 nM
same,TGI,[14],15 µM
same,GI50,[15],2800 nM
same,TGI,[15],9.84 µM
same,GI50,[51],3.15 µM
same,TGI,[51],7.65 µM
same,GI50,[52],3.14 µM
same,TGI,[52],10.6 µM
same,GI50,[16],2960 nM
same,TGI,[16],10.4 µM
same,GI50,[17],2700 nM
same,TGI,[17],8.75 µM
same,GI50,[53],100 µM
same,TGI,[53],> 100 µM
same,GI50,[18],4.64 µM
same,TGI,[18],56.5 µM
same,GI50,[19],4.87 µM
same,TGI,[19],27.7 µM
same,GI50,[20],9.02 µM
same,TGI,[20],22.2 µM
same,GI50,[54],5.51 µM
same,TGI,[54],20.7 µM
same,GI50,[21],3120 nM
same,TGI,[21],10.8 µM
same,GI50,[22],4220 nM
same,TGI,[22],29.2 µM
same,GI50,[23],2120 nM
same,TGI,[23],5.78 µM
same,GI50,[24],2840 nM
same,TGI,[24],10.9 µM
same,GI50,[25],4.68 µM
same,TGI,[25],> 100 µM
same,GI50,[26],24.6 µM
same,TGI,[26],> 100 µM
same,GI50,[27],43.1 µM
same,TGI,[27],> 100 µM
same,GI50,[28],4.23 µM
same,TGI,[28],16.5 µM
same,GI50,[29],3580 nM
same,TGI,[29],16 µM
same,GI50,[30],> 100 µM
same,TGI,[30],> 100 µM
same,GI50,[33],3030 nM
same,TGI,[33],13 µM
same,GI50,[34],5.3 µM
same,TGI,[34],> 100 µM
same,GI50,[36],5.28 µM
same,TGI,[36],22.5 µM
same,GI50,[37],14.1 µM
same,TGI,[37],35.7 µM
same,GI50,[55],5.19 µM
same,TGI,[55],23 µM
same,GI50,[38],16.7 µM
same,TGI,[38],63.6 µM
same,GI50,[56],4.92 µM
same,TGI,[56],22.4 µM
same,GI50,[39],2390 nM
same,TGI,[39],6.92 µM
same,GI50,[40],26.5 µM
same,TGI,[40],> 100 µM
same,GI50,[41],7.71 µM
same,TGI,[41],25.4 µM
same,GI50,[42],11.5 µM
same,TGI,[42],69.9 µM
same,GI50,[43],4.51 µM
same,TGI,[43],34 µM
same,GI50,[57],3.35 µM
same,TGI,[57],18.4 µM
same,GI50,[44],2750 nM
same,TGI,[44],7.05 µM
same,GI50,[45],1850 nM
same,TGI,[45],4.11 µM
same,GI50,[58],3.17 µM
same,TGI,[58],11.7 µM
same,GI50,[46],3570 nM
same,TGI,[46],12.9 µM
same,GI50,[47],1990 nM
same,TGI,[47],4.85 µM
same,GI50,[59],3.31 µM
same,TGI,[59],13 µM
